{"source": "patent US20120220554A1", "about": "“Combretastatins for Prevention of Posterior Capsule Opacification” (OXIGENE, INC., priority 2010, published 2012)", "key": {"ERK 1/2 (p42 and p44)": {"test_system": "ERK 1/2 (p42 and p44)", "assay": "Erk 1/2 phosphorylation immunoblot in primary lens epithelial cells", "format": "cell-based, bovine", "conditions": "primary cells after dissection; 30 min 1 mM CA4P; immediately and 1 h after end of exposure (FIG. 7)", "description": "Bovine eyes were obtained from Coast and County Meat Group (Felling, UK) on the day of culling and lenses were dissected out of the eyes under a sterile tissue culture hood as described below. After generous dousing in 70% ethanol, eyes were cut open using a major surgical blade (Swann-Morton, UK) via a single cut, parallel and posterior to the cornea-conjunctiva limit. The eye was then inverted and the vitreous removed. The lens was freed from the ciliary fibers and immediately placed anterior face down in a SYLGARD-covered (Dow Corning, Germany) well of a 12-well tissue culture plate (Greiner Bio-One, UK). The posterior side of the lens capsule was cut in a Y-shape fashion by a thin scalpel and the resulting flaps pulled back and pinned onto the SYLGARD. […]\nImmediately after dissection, primary lens epithelial cells were exposed for 30 min to 1 mM CA4P diluted in 0% FCS medium, after which they were returned to 0% FCS-supplemented medium. […] After total protein quantification of the extracts by Bicinchoninic Acid (BCA) assay (ThermoScientific, UK), 20 μg of extract were loaded per lane of a 12% acrylamide denaturing gel, which was run at 200V for 40 min, followed by blotting onto a nitrocellulose membrane at 0.8 mA/cm^2 for 2 h and blocking in either milk (Erk 1/2) or BSA (GAPDH) in TTBS (0.2% Tween (vol/vol), 150 mM NaCl, 20 mM Tris.HCl pH 7.4) for 1 h at room temperature. […]"}, "[1]": {"test_system": "Primary bovine lens epithelial cells", "assay": "Wound edge migration, multi-layering and EMT hallmarks of primary lens epithelial cells on the lens capsule", "format": "cell-based", "experimental": "We tested CA4P as a potential inhibitor of lens epithelial cells epithelial-mesenchymal transition (EMT) during posterior capsular opacification (PCO), a common complication of cataract surgery. […] This effect persisted up to 48 h after CA4P exposure. Lens epithelial cell proliferation was also affected, as assayed by Ki67 immunofluorescence, MTT-based cell viability assays and cell cycle analysis by flow cytometry. Hallmarks of EMT, namely loss of cell polarity and migratory behavior, were also investigated in primary bovine lens epithelial cells grown on the lens capsule and were decreased by CA4P exposure, although cell multilayering seemed unaffected.\n(FIG. 5). In addition, primary bovine lens epithelial cells grown on the lens capsule in serum-free conditions for 48 h move away from the wound edge."}, "BIE cells": {"test_system": "BIE cells", "assay": "Ki67 immunofluorescence (cell proliferation) in BIE cells", "format": "cell-based, bovine", "experimental": "BMI-immortalized bovine lens epithelial cells (BIE cell line, produced in Roy Quinlan's Laboratory, University of Durham, UK), were seeded onto 13 mm round coverslips in 6-well tissue culture plates in 10% fetal calf serum (FCS)-supplemented tissue culture medium (Sigma-Aldrich, UK) and kept at 37° C., 5% CO2 overnight. The next morning, they were exposed to 1 μM CA4P diluted in 10% FCS-supplemented medium for 30 min, after which the cells were returned to 10% FCS-supplemented medium. After 48 h, the prevalence of Ki67 positive cells was assessed by immunofluorescence.\nBIE cells on coverslips were rinsed three times in PBS, followed by a single 20 min fixation in a 1:1 mix of methanol and acetone, three rinses in PBS/0.2 g/L BSA/0.2 g/L Na Azide and a single 20 min blocking step in 10% goat serum (Sigma-Aldrich, UK) diluted in PBS/BSA/NaAzide. The cells were then exposed to primary antibody (Ki-67: mouse monoclonal, 1/100, MIB-1 (DAKO, Denmark)) for 1 h at room temperature, after which they were rinsed three times in PBS/BSA/NaAzide and exposed to secondary antibody (goat anti-mouse IgG FITC-conjugated, 1/100; DAPI, 1/1000 (Sigma-Aldrich, UK)) for 1 h at room temperature in the dark. After three last rinses in PBS/BSA/NaAzide, the cells were plated onto microscope slides (VWR International, Belgium) and examined using a Zeiss LSM 510 Meta confocal microscope and its associated software. Ki-67 positive cells were counted out of a total of between 200 and 500 cells per coverslip, for two coverslips for each of three independent repeats, and expressed as the average percentage of Ki-67 positive cells out of the total number of cells counted (as determined by DAPI staining). Significant differences between control and treated cells were assessed by Chi^2-test."}, "[2]": {"conditions": "30 min exposure to 1 mM CA4P immediately after wounding, serum-free, 48 h (data not shown)"}, "[3]": {"conditions": "48 h after 30 min exposure to 1 μM CA4P"}}, "data": [{"smiles": "COc1ccc(/C=C\\c2cc(OC)c(OC)c(OC)c2)cc1OP(=O)(O)O", "note": "[CA4P, combretastatin A-4 phosphate]", "values": [{"measurement": "Erk phosphorylation", "setting": "ERK 1/2 (p42 and p44)", "value": "not affected"}, {"measurement": "cell multi-layering", "setting": "[1]; [2]", "value": "does not prevent cell multi-layering"}, {"measurement": "cells moving away from the wound edge", "setting": "[1]; [2]", "value": "prevents the cells from leaving the wound edge"}, {"measurement": "hallmarks of EMT: loss of cell polarity and migratory behavior", "setting": "[1]; primary bovine lens epithelial cells grown on the lens capsule", "value": "decreased"}, {"measurement": "nuclear morphology", "setting": "BIE cells; 30 h after exposure (data not shown)", "value": "changes in nuclear morphology, as well as multinucleated cells were detected"}, {"measurement": "Ki67 negative (%)", "setting": "BIE cells; [3]", "value": "85.1 ± 5.7", "unit": "%"}, {"measurement": "Ki67 positive (%)", "setting": "BIE cells; [3]", "value": "14.9 ± 5.7", "unit": "%"}, {"measurement": "cell loss", "setting": "BIE cells; by 48 h after exposure", "value": "cell loss is extensive"}]}]}
